Patent publication US20220125795A1, “THERAPEUTIC COMBINATIONS AND COMPOSITIONS FOR THE TREATMENT OF INFLAMMATORY BOWEL DISEASE” (RIJKSUNIVERSITEIT GRONINGEN, priority 2019, published 2022)

Experiments:
Assay type in all cases: in vivo, human
[1] = test system: Enterobacteriaceae including E. coli; test: Prospective clinical intervention study in CD patients: fecal microbial composition; details: CD patients with thiopurine treatment; 100 mg riboflavin daily for 3 weeks
Protocol: (§1) In a prospective clinical intervention study, 70 CD patients were included and divided into two groups with (active) and without (quiescent) evidence of mucosal inflammation (defined by fecal calprotectin (FC) cut-off value: 200 μg/g). Patients received 100 mg riboflavin daily for 3 weeks. Clinical disease activity (Harvey-Bradshaw Index: HBI), inflammatory biomarkers (including interleukin 2) as well as fecal microbial composition (including pathogenic Enterobacteriaceae including E. coli) were analyzed before and after riboflavin intervention.

[2] = Prospective clinical intervention study in CD patients: clinical disease activity (Harvey-Bradshaw Index); details: 100 mg riboflavin daily for 3 weeks, before vs after
Protocol: as §1

interleukin 2 = test: Prospective clinical intervention study in CD patients: inflammatory biomarkers (interleukin 2); details: CD patients with thiopurine treatment; 100 mg riboflavin daily for 3 weeks
Protocol: as §1

## Cc1cc2nc3c(=O)[nH]c(=O)nc-3n(C[C@H](O)[C@H](O)[C@H](O)CO)c2cc1C [riboflavin]
[1]
  Enterobacteriaceae including E. coli (fecal): further reduction
[2]; CD patients with mesalazine treatment
  clinical disease activity (HBI): this was not the case (not as pronounced as)
[2]; CD patients with thiopurine treatment (particularly quiescent disease)
  clinical disease activity (HBI): further reduced clinical disease activity (HBI)
Interleukin 2
  proinflammatory cytokine IL2: further reduction
